This is an account of results in patent US20090233943A9, “NEW COMPOUNDS 835” (priority 2007, published 2009).

The assay deals with T1, human β-Secretase (soluble part, AA 1-AA 460, sBACE-Fc) (Homo sapiens, UniProt P56817).
T1 construct: The soluble part of the human β-Secretase (AA 1-AA 460) was cloned; made in house
T1 sequence (P56817 22-460): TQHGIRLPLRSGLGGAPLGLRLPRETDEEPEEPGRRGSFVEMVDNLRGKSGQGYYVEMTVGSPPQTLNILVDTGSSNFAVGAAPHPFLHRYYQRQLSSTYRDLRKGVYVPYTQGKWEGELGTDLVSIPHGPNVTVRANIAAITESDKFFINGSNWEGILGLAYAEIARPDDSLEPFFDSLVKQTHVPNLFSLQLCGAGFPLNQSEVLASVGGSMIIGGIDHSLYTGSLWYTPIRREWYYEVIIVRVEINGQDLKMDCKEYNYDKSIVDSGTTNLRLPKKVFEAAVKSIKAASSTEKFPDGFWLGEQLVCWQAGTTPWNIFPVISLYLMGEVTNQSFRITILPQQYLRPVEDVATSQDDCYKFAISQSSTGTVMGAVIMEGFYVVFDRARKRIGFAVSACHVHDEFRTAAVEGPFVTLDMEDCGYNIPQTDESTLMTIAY
Put plainly: TR-FRET assay (β-secretase enzyme). The assay is classed as biochemical. The protocol:
The enzyme used in the IGEN Cleavage-, Fluorescent-, TR-FRET- and BiaCore assays is described as follows:
The soluble part of the human β-Secretase (AA 1-AA 460) was cloned into the ASP2-Fc10-1-IRES-GFP-neoK mammalian expression vector. The gene was fused to the Fc domain of IgG1 (affinity tag) and stably cloned into SEEK 293 cells. Purified sBACE-Fc is stored in Tris buffer, pH 9.2 and has a purity of 95%.
Enzyme was diluted to 6 μg/mL and the substrate (Europium)[…](Qsy7) to 200 nM in reaction buffer (NaAcetate, chaps, triton x-100, EDTA pH 4.5). Compounds were diluted to the desired concentration in dimethyl sulfoxide (final dimethyl sulfoxide concentration in assay is 5%). […] Enzyme (9 μL) and 1 μL of compound in dimethyl sulfoxide was added to the plate, mixed and pre-incubated for 10 min. Substrate (10 μL) was added and the reaction proceeded in the dark for 15 min at RT. The reaction was stopped with the addition of 7 μL NaAcetate, pH 9. The fluorescence of the product was measured on a Victor II plate reader with an excitation wavelength of 340 nm and an emission wavelength of 615 nm. […] The dimethyl sulfoxide control defined the 100% activity level and 0% activity was defined by exclusion of the enzyme (using reaction buffer instead).
In general terms: TR-FRET usually uses a lanthanide donor and a delayed reading to cut background.
For orientation: IC50 means the midpoint of a concentration-inhibition curve. Read a high IC50 as weaker potency in that assay. With `CN1C(=O)C(c2cccc(S(F)(F)(F)(F)F)c2)(c2ccc(F)c(-c3cncc(C#N)c3)c2)N=C1N` (stereo not drawn) [Example 49, 5-(5-{2-Amino-1-methyl-5-oxo-4-[3-(pentafluoro-λ^6-sulfanyl)phenyl]-4,5-dihydro-1H-imidazol-4-yl}-2-fluorophenyl)nicotinonitrile 0.25 acetate], the IC50 is 1140 nM.

Consider `CN1C(=O)C(c2ccc(S(F)(F)(F)(F)F)cc2)(c2cccc(-c3cncc(C#N)c3)c2)N=C1N` (stereo not drawn) [Example 45, 5-(3-{2-amino-1-methyl-5-oxo-4-[4-(pentafluoro-λ^6-sulfanyl)phenyl]-4,5-dihydro-1H-imidazol-4-yl}phenyl)pyridine-3-carbonitrile], for which the IC50 was found to be 59 nM.

Consider `COc1cncc(-c2cc(C3(c4ccc(S(F)(F)(F)(F)F)cc4)N=C(N)N(C)C3=O)ccc2F)c1` (single isomer, unassigned) [26 isomer 2], for which the IC50 was found to be 465 nM.

Regarding `CN1C(=O)C(c2ccc(S(F)(F)(F)(F)F)cc2)(c2cccc(-c3cc(C#N)ccn3)c2)N=C1N` (stereo not drawn) [Example 42, 2-(3-{2-amino-1-methyl-5-oxo-4-[4-(pentafluoro-λ^6-sulfanyl)phenyl]-4,5-dihydro-1H-imidazol-4-yl}phenyl)pyridine-4-carbonitrile], the 50% inhibitory concentration (IC50) was 405 nM.

As to `COc1cncc(-c2cc(C3(c4cccc(S(F)(F)(F)(F)F)c4)N=C(N)N(C)C3=O)ccc2F)c1` (stereo not drawn) [Example 51, 2-Amino-5-[4-fluoro-3-(5-methoxypyridin-3-yl)phenyl]-[3-methyl-5-3-(pentafluoro-6-sulfanyl)phenyl]-3,5-dihydro-4H-imidazol-4-one], inhibition was half-maximal at 305 nM (IC50).

With `CN1C(=O)C(c2ccc(S(F)(F)(F)(F)F)cc2)(c2cccc(-c3cnccn3)c2)N=C1N` (stereo not drawn) [Example 36, 2-amino-3-methyl-5-[4-(pentafluoro-λ^6-sulfanyl)phenyl]-5-(3-pyrazin-2-ylphenyl)-3,5-dihydro-4H-imidazol-4-one], the IC50 came out at 56 nM.
